From patent US10913738B2 (BRISTOL-MYERS SQUIBB COMPANY, priority 2017, dated 2021)
Like-named read-outs stand apart in the source and are kept apart here.

Experiments:
[1] = target: T1, His-GST-TVMV-hRIPK1(1-324) (Homo sapiens, UniProt Q13546); assay: RIPK1 HTRF Binding Assay
T1 construct: The coding region of human RIPK1(1-324) flanked by NdeI site at 5′ end; made in house; host or cells: Spodoptera frugiperda (Sf9) insect cells, baculovirus
T1 sequence (Q13546 1-324): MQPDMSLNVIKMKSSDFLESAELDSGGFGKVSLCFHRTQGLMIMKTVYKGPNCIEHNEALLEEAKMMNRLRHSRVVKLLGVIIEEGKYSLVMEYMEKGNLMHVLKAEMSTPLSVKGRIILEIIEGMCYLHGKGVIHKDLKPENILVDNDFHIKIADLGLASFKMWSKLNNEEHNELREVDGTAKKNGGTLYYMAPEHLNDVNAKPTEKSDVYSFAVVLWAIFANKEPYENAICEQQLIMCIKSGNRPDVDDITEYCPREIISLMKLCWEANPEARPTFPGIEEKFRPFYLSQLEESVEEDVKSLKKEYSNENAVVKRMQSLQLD

[2] = tested on: MLKL phosphorylation in HT29-L23 human colorectal adenocarcinoma cells; assay: MLKL Phosphorylation High-Content Assay; format: cell-based; conditions: Homo sapiens
Procedure, shortened: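 IC50 and Ymax obtained by 4-parameter logistic fitting of MLKL phosphorylation, measured as mean circ-ring average intensity ratio from high-content images. Staining used an anti-phospho-S358 MLKL antibody overnight at 4° C., following six-hour cell incubation at 37° C.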

[3] = x marks IC50 class 20-200 nM, read-out: RIPK1 HTRF binding 20-200 nM
[4] = x marks IC50 class 20-200 nM, read-out: pMLKL cell activity 20-200 nM
[5] = x marks IC50 class <20 nM, read-out: RIPK1 HTRF binding <20 nM
[6] = x marks IC50 class <20 nM, read-out: pMLKL cell activity <20 nM
[7] = x marks IC50 class >200 nM, read-out: RIPK1 HTRF binding >200 nM
[8] = x marks IC50 class >200 nM, read-out: pMLKL cell activity >200 nM

Row | SMILES | IC50 [2, 4] [nM] | IC50 [1, 5] [nM] | also measured
1 | COc1ncc(-c2ccn3nc(N)nc3c2)cc1C(=O)NCc1c[nH]nc1-c1ccccc1 [Example 152, 5-{2-amino-[1,2,4]triazolo[1,5-a]pyridin-7-yl}-2-methoxy-N-[(3-phenyl-1H-pyrazol-4-yl)methyl]pyridine-3-carboxamide] | 20 to 200 |  | IC50 [1, 3]: 20 to 200 nM
2 | Cc1ncc(-c2ccn3nc(N)nc3c2)cc1C(=O)NCc1ccccc1OCC(C)C [Example 305, 5-(2-amino-[1,2,4]triazolo[1,5-a]pyridin-7-yl)-N-(2-isobutoxybenzyl)-2-methylnicotinamide] | 20 to 200 |  | IC50 [1, 3]: 20 to 200 nM
3 | COc1nc(C)c(-c2ccn3nc(N)nc3c2)cc1C(=O)NCc1ccccc1OCC1CC1 [Example 221, 5-{2-amino-[1,2,4]triazolo[1,5-a]pyridin-7-yl}-N-{[2-(cyclopropylmethoxy)phenyl]methyl}-2-methoxy-6-methylpyridine-3-carboxamide] |  | < 20 | IC50 [2, 6]: < 20 nM
4 | COc1nc(C)c(-c2ccn3nc(N)nc3c2)cc1C(=O)NCc1ccccc1OC1CCCC1 [Example 219, 5-{2-amino-[1,2,4]triazolo[1,5-a]pyridin-7-yl}-N-{[2-(cyclopentyloxy)phenyl]methyl}-2-methoxy-6-methylpyridine-3-carboxamide] |  | < 20 | IC50 [2, 6]: < 20 nM
5 | [2H]C([2H])([2H])Oc1ncc(-c2ccn3nc(N)nc3c2)cc1C(=O)NC(C)c1ccccc1OC(F)(F)F (single isomer, unassigned) [Example 95-1, 5-{2-amino-[1,2,4]triazolo[1,5-a]pyridin-7-yl}-2-(deutero)methoxy-N-{1-[2-(trifluoromethoxy)phenyl]ethyl}pyridine-3-carboxamide] |  |  | IC50 [1, 7]: > 200 nM; IC50 [2, 8]: > 200 nM
6 | Cc1ncc(-c2ccn3nc(N)nc3c2)cc1C(=O)NCc1ccccc1OC1CCC(C)C1 (centres unmarked) [Example 237, 5-{2-amino-[1,2,4]triazolo[1,5-a]pyridin-7-yl}-2-methyl-N-({2-[(3-methylcyclopentyl)oxy]phenyl}methyl)pyridine-3-carboxamide] |  | < 20 | IC50 [2, 6]: < 20 nM
7 | CCOc1ncc(-c2ccn3nc(N)nc3c2)cc1C(=O)NCc1ccccc1SC(C)C [Example 266, 5-{2-amino-[1,2,4]triazolo[1,5-a]pyridin-7-yl}-2-ethoxy-N-{[2-(propan-2-ylsulfanyl)phenyl]methyl}pyridine-3-carboxamide] | 20 to 200 | < 20 | 
8 | COc1ncc(-c2ccn3nc(N)nc3c2)cc1C(=O)NCc1cccc(OC(C)C)c1 [Example 139, 5-{2-amino-[1,2,4]triazolo[1,5-a]pyridin-7-yl}-2-methoxy-N-{[3-(propan-2-yloxy)phenyl]methyl}pyridine-3-carboxamide] | 20 to 200 | < 20 | 
9 | CC(CCNC(=O)c1cc(-c2ccn3nc(N)nc3c2)nc2ccc(F)cc12)c1ccccc1 (centres unmarked) [Example 67, 2-{2-Amino-[1,2,4]triazolo[1,5-a]pyridin-7-yl}-6-fluoro-N-(3-phenylbutyl)quinoline-4-carboxamide] | 20 to 200 |  | IC50 [1, 3]: 20 to 200 nM
10 | Cc1nc(C)c(-c2ccn3nc(N)nc3c2)cc1C(=O)NCc1c(F)cccc1OCC1CCCC1 [Example 180, 5-12-amino-[1,2,4]triazolo[1,5-a]pyridin-7-yl}-N-{[2-(cyclopentylmethoxy)-6-fluorophenyllmethyl}-2,6-dimethylpyridine-3-carboxamide] | 20 to 200 | < 20 | 
11 | [2H]C([2H])([2H])[C@H](NC(=O)c1cc(-c2ccn3nc(N)nc3c2)cnc1C)c1cc(C(F)(F)F)ccc1F [Example 302, (S)-5-(2-amino-[1,2,4]triazolo[1,5-a]pyridin-7-yl)-N-(1-(2-fluoro-5-(trifluoromethyl)phenyl)ethyl-2,2,2-H3)-2-methylnicotinamide] | 20 to 200 | < 20 | 
12 | Cc1nc(C)c(-c2ccn3nc(N)nc3c2)cc1C(=O)NCc1cc(F)cc(F)c1OCC1CC1 [Example 184, 5-{2-amino-[1,2,4]triazolo[1,5-a]pyridin-7-yl}-N-{[2-(cyclopropylmethoxy)-3,5-difluorophenyl]methyl}-2,6-dimethylpyridine-3-carboxamide] |  | < 20 | IC50 [2, 6]: < 20 nM
13 | Cc1ncc(-c2ccn3nc(N)nc3c2)cc1C(=O)NC(C)c1cc(C(F)(F)F)ccc1F (single isomer, unassigned) [Example 99-1, 5-{2-amino-[1,2,4]triazolo[1,5-a]pyridin-7-yl}-N-{1-[2-fluoro-5-(trifluoromethyl)phenyl]ethyl}-2-methylpyridine-3-carboxamide] | 20 to 200 |  | IC50 [1, 3]: 20 to 200 nM
14 | COc1ncc(-c2ccn3nc(N)nc3c2)cc1C(=O)NCc1cc(F)cc(F)c1OC1CCOC(C)C1 (centres unmarked) [Example 361, 5-(2-amino-[1,2,4]triazolo[1,5-a]pyridin-7-yl)-N-(3,5-difluoro-2-((2-methyltetrahydro-2H-pyran-4-yl)oxy)benzyl)-2-methoxynicotinamide] | 20 to 200 | < 20 | 
15 | COc1ncc(-c2ccn3nc(N)nc3c2)cc1C(=O)NCc1ccc(F)cc1OC1CCOCC1 [Example 80, 5-{2-Amino-[1,2,4]triazolo[1,5-a]pyridin-7-yl}-N-{[4-fluoro-2-(oxan-4-yloxy)phenyl]methyl}-2-methoxypyridine-3-carboxamide] | 20 to 200 | < 20 | 
16 | COc1ncc(-c2ccn3nc(N)nc3c2)cc1C(=O)NCc1ccc(F)cc1OCC1CC1 [Example 145, 5-{2-amino-[1,2,4]triazolo[1,5-a]pyridin-7-yl}-N-{[2-(cyclopropylmethoxy)-4-fluorophenyl]mehtyl}-2-methoxypyridine-3-carboxaamide] | 20 to 200 | < 20 | 
17 | COc1ccc(-c2ccn3nc(N)nc3c2)nc1C(=O)N[C@H](C)c1cc(OC(F)(F)F)ccc1F [Example 406, (R)-6-(2-amino-[1,2,4]triazolo[1,5-a]pyridin-7-yl)-N-(1-(2-fluoro-5-(trifluoromethoxy)phenyl)ethyl)-3-methoxypicolinamide] |  |  | IC50 [1, 3]: 20 to 200 nM; IC50 [2, 8]: > 200 nM
18 | Cc1ncc(-c2ccn3nc(N)nc3c2)cc1C(=O)NCc1cc(F)ccc1OCC1CCCC1 [Example 20, 5-{2-Amino-[1,2,4]triazolo[1,5-a]pyridin-7-yl}-N-{[2-(cyclopentylmethoxy)-5-fluorophenyl]methyl}-2-methylpyridine-3-carboxamide] | 20 to 200 | < 20 | 
19 | Cc1ncc(-c2ccn3nc(N)nc3c2)cc1NC(=O)c1cc(OC(F)(F)F)ccc1F [Example 419, N-(5-(2-amino-[1,2,4]triazolo[1,5-a]pyridin-7-yl)-2-methylpyridin-3-yl)-2-fluoro-5-(trifluoromethoxy)benzamide] |  | < 20 | IC50 [2, 8]: > 200 nM
20 | COc1ncc(-c2ccn3nc(N)nc3c2)cc1C(=O)NCc1c(F)cccc1OC(C)C [Example 29, 5-{2-Amino-[1,2,4]triazolo[1,5-a]pyridin-7-yl}-N-{[2-fluoro-6-(propan-2-yloxy)phenyl]methyl}-2-methoxypyridine-3-carboxamide] | 20 to 200 | < 20 | 
21 | COc1ncc(-c2ccn3nc(N)nc3c2)cc1C(=O)N1CCCC(C(O)c2ccc(F)cc2)C1 (mixture of isomers) [Example 422, (5-(2-amino-[1,2,4]triazolo[1,5-a]pyridin-7-yl)-2-methoxypyridin-3-yl)(3-((4-fluorophenyl)(hydroxy)methyl)piperidin-1-yl)methanone] |  |  | IC50 [1, 7]: > 200 nM; IC50 [2, 8]: > 200 nM
22 | CCc1ccccc1CNC(=O)c1cc(-c2ccn3nc(N)nc3c2)cnc1OC [Example 133, 5-{2-amino-[1,2,4]triazolo[1,5-a]pyridin-7-yl}-N-[(2-ethylphenyl)methyl]-2-methoxypyridine-3-carboxamide] |  |  | IC50 [1, 3]: 20 to 200 nM; IC50 [2, 8]: > 200 nM
23 | [2H]C([2H])([2H])Oc1nc(C)c(-c2ccn3nc(N)nc3c2)cc1C(=O)NC(C)c1cc(OC(F)(F)F)ccc1F (single isomer, unassigned) [Example 97-1, 5-{2-amino-[1,2,4]triazolo[1,5-a]pyridin-7-yl}-N-{1-[2-fluoro-5-(trifluoromethoxy)phenyl]ethyl}-2-(deutero)methoxy-6-methylpyridine-3-carboxamide] | 20 to 200 |  | IC50 [1, 3]: 20 to 200 nM
24 | CNc1ncc(-c2ccn3nc(N)nc3c2)cc1C(=O)NCCC(C)c1ccccc1 (centres unmarked) [Example 70, 5-{2-Amino-[1,2,4]triazolo[1,5-a]pyridin-7-yl}-2-(methylamino)-N-(3-phenylbutyl)pyridine-3-carboxamide] | 20 to 200 | < 20 | 
25 | [2H]C([2H])([2H])[C@@H](NC(=O)c1cc(-c2ccn3nc(N)nc3c2)cnc1C)c1cc(C(F)(F)F)ccc1F [Example 303, (R)-5-(2-amino-[1,2,4]triazolo[1,5-a]pyridin-7-yl)-N-(1-(2-fluoro-5-(trifluoromethyl)phenyl)ethyl-2,2,2-H3)-2-methylnicotinamide] | 20 to 200 | < 20 | 
